Legend:
Target C [1] = assay: RT-qPCR splicing assay, gene panel, Target C canonical junction (CJ) mRNA; type: cell-based; conditions: Homo sapiens, read-out: Target C CJ IC50
Procedure, shortened: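 A673 (DMEM/10% FBS) or K562 (IMDM/10% FBS) cells were treated 24 h at 37 °C with an 11-point 3-fold dilution series, top final 10 uM, DMSO ≤0.25%. Lysates underwent one-step RT-qPCR for the canonical-junction isoform with GAPDH, GUSB or PPIA as housekeeper. ΔΔCt versus DMSO was converted to RQ (2^−ΔΔCt), then to percent response.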

Target C [2] = assay: HiBit protein abundance assay, Target C; type: cell-based; conditions: Homo sapiens; K562 HiBiT-modified cells, 24 hours, luminescence
Experimental: Compounds described herein were used to screen for effects on quantitative protein abundance using a HiBit assay system (Promega). Quantitative protein abundance was determined by measuring the protein levels of HiBit-tagged protein targets expressed in cell culture via luminescence using the Nano-Glo HiBiT Lytic Detection System, which uses a split complementation assay format to reconstitute NanoBiT enzyme to generate a luminescent signal. A protein abundance assay was developed such that endogenous protein targets could be modified with the HiBiT peptide tag and their abundance could be assessed after compound treatment. Briefly, K562 cell lines containing a HiBiT-modification were treated with various compounds described herein (e.g., compounds of Formulas (I), (II), or (III)). After treatment for 24 hours, the protein abundance of a specific target was determined by measuring luminescence. • Promega Nano-Glo HiBiT Lytic Detection System (cat #N3030) • Corning 384-well TC-treated microplates (cat #3570) • Synthego Engineered Cells Knock-In Clones Cells were maintained in IMDM with 10% FBS. Before the assay, cells were diluted with phenolphthalein-free growth media (IMDM+1% FBS media) and were seeded in a 384-well plate at a density of 10000 cells/well (for each cell line listed in Table 6). Each compound was prepared as a 10-point 3-fold serial dilution in DMSO with the top dose at a final concentration of 10 μM in the well. Unmodified K562 cells were added at the previously specified density with DMSO to serve as an assay baseline and positive control (PC) and DMSO only with the respective modified cell lines was added to the negative control (NC) columns. Final DMSO concentration was kept at or below 0.25%. Treated cell plates were placed in an incubator at 37° C. with 5% CO2 for 24 hours. After 24 hours, 25 μL of Complete HiBit Lytic reagent was added to each well at room temperature (e.g. one plate requiring 10 mL Lytic Buffer, 100 μL LgBiT Protein, 200 μL Lytic Substrate), shaken for 5 minutes at 600 RPM, then left to sit for 10 minutes for signal to stabilize before reading on a Spark Cyto plate reader (Tecan) with a 500 ms measurement time. To determine compound effects on protein abundance of each target in Table 6, the percent response for each respective cell line was calculated at each compound concentration as follows: For the normalized response at each concentration, a four-parameter logistical regression was fit to the data and the response was interpolated at the 50% value to determine a concentration for protein abundance at 50% (IC50) the untreated control.

[3] = decrease in CJ mRNA levels, larger panel of genes, Table 3

Cc1cn2nc(-c3cc(F)c4nn(C5CCNC6(CCC6)C5)cc4c3)cc(C)c2n1 (centres unmarked) [Compound 189, 6-[2-(5-azaspiro[3.5]nonan-8-yl)-7-fluoro-indazol-5-yl]-2,8-dimethyl-imidazo[1,2-b]pyridazine]
IC50 (Target C [1]; [3]): 100 to 1000 nM
IC50 (Target C [2]): < 100 nM

COc1cc(-c2cc3cn(C)nc3cc2O)nc2cn(C3CCNCC3)nc12 [Compound 140, 5-[7-methoxy-2-(4-piperidyl)pyrazolo[4,3-b]pyridin-5-yl]-2-methyl-indazol-6-ol]
IC50 (Target C [1]; [3]): 1000 to 10000 nM
IC50 (Target C [2]): 1000 to 10000 nM

CCN1CCC(n2cc3cc(-c4cc(C)c5nc(C)cn5n4)cc(F)c3n2)CC1 [Compound 146, 6-[2-(1-ethyl-4-piperidyl)-7-fluoro-indazol-5-yl]-2,8-dimethyl-imidazo[1,2-b]pyridazine]
IC50 (Target C [1]; [3]): 100 to 1000 nM
IC50 (Target C [2]): < 100 nM

Cc1cn2nc(-c3cc(F)c4nn(C5CCN(CCO)C6(CC6)C5)cc4c3)cc(C)c2n1 (centres unmarked) [Compound 180, 2-[7-[5-(2,8-dimethylimidazo[1,2-b]pyridazin-6-yl)-7-fluoro-indazol-2-yl]-4-azaspiro[2.5]octan-4-yl]ethanol]
IC50 (Target C [1]): 100 to 1000 nM
IC50 (Target C [2]): < 100 nM

Cc1nc2ccc(-c3cc(F)c4nn(C5CCNCC5)cc4c3)cc2o1 [Compound 135, 6-[7-fluoro-2-(4-piperidyl)indazol-5-yl]-2-methyl-1,3-benzoxazole]
IC50 (Target C [1]; [3]): 100 to 1000 nM
IC50 (Target C [2]): 100 to 1000 nM

Cc1cn2nc(-c3cc4cn(C5CCNCC5)nc4cc3O)cc(C)c2n1 [Compound 154, 5-(2,8-dimethylimidazo[1,2-b]pyridazin-6-yl)-2-(piperidin-4-yl)-2H-indazol-6-ol]
IC50 (Target C [1]; [3]): 100 to 1000 nM
IC50 (Target C [2]): < 100 nM

Cc1cn2cc(-c3cc(F)c4nn(C5CCNCC5)cc4c3)cc(C)c2n1 [Compound 125, 5-(2,8-dimethylimidazo[1,2-a]pyridin-6-yl)-7-fluoro-2-(4-piperidyl)indazole]
IC50 (Target C [1]; [3]): 100 to 1000 nM
IC50 (Target C [2]): < 100 nM

Cc1cn2nc(-c3cc4cn(C5CCNCC5)nc4cn3)cc(C)c2n1 [Compound 147, 2,8-dimethyl-6-[2-(4-piperidyl)pyrazolo[3,4-c]pyridin-5-yl]imidazo[1,2-b]pyridazine]
IC50 (Target C [1]; [3]): 100 to 1000 nM
IC50 (Target C [2]): 100 to 1000 nM

Cc1cn2nc(-c3cc(F)c4nn(C5CCN(C)CC5)cc4c3)cc(C)c2n1 [Compound 150, 6-[7-fluoro-2-(1-methyl-4-piperidyl)indazol-5-yl]-2,8-dimethyl-imidazo[1,2-b]pyridazine]
IC50 (Target C [1]; [3]): 100 to 1000 nM
IC50 (Target C [2]): < 100 nM

Fc1cc(-c2ccc3ccncc3c2)cc2cn(C3CCNCC3)nc12 [Compound 158, 7-[7-fluoro-2-(4-piperidyl)indazol-5-yl]isoquinoline]
IC50 (Target C [1]; [3]): > 10000 nM
IC50 (Target C [2]): 1000 to 10000 nM

Cc1cn2nc(-c3cc(F)c4nn(C5CCN(CC6CC6)CC5)cc4c3)cc(C)c2n1 [Compound 149, 6-[2-[1-(cyclopropylmethyl)-4-piperidyl]-7-fluoro-indazol-5-yl]-2,8-dimethyl-imidazo[1,2-b]pyridazine]
IC50 (Target C [1]; [3]): < 100 nM
IC50 (Target C [2]): < 100 nM

Cc1cn2nc(-c3cc(F)c4nn(C5CCN(C)C6(CC6)C5)cc4c3)cc(C)c2n1 (centres unmarked) [Compound 174, 6-[7-fluoro-2-(4-methyl-4-azaspiro[2.5]octan-7-yl)indazol-5-yl]-2,8-dimethyl-imidazo[1,2-b]pyridazine]
IC50 (Target C [1]; [3]): < 100 nM
IC50 (Target C [2]): < 100 nM

Cc1cc(-n2cc3cc(N4CCNCC4)cc(F)c3n2)cc2cn(C)nc12 [Compound 117, 2-(2,7-dimethylindazol-5-yl)-7-fluoro-5-piperazin-1-yl-indazole]
IC50 (Target C [1]; [3]): > 10000 nM
IC50 (Target C [2]): > 10000 nM

Cc1c(O)c(-c2ccc3nn(C4CCNCC4)nc3n2)cc2cn(C)nc12 [Compound 113, 2,7-dimethyl-5-[2-(4-piperidyl)triazolo[4,5-b]pyridin-5-yl]indazol-6-ol]
IC50 (Target C [1]; [3]): > 10000 nM
IC50 (Target C [2]): 1000 to 10000 nM

Cc1cc(-n2cc3cc(N4CCNCC4)ccc3n2)cc2cn(C)nc12 [Compound 121, 2,7-dimethyl-5-(5-piperazin-1-ylindazol-2-yl)indazole]
IC50 (Target C [1]; [3]): > 10000 nM
IC50 (Target C [2]): > 10000 nM

Cn1cc2cc(-c3ccc4nn(C5CCNCC5)cc4n3)c(O)cc2n1 [Compound 110, 2-methyl-5-[2-(4-piperidyl)pyrazolo[4,3-b]pyridin-5-yl]indazol-6-ol]
IC50 (Target C [1]; [3]): 1000 to 10000 nM
IC50 (Target C [2]): 100 to 1000 nM

Cc1cc(-n2cc3cc(C4CCNCC4)cc(F)c3n2)cc2cn(C)nc12 [Compound 115, 2-(2,7-dimethylindazol-5-yl)-7-fluoro-5-(4-piperidyl)indazole]
IC50 (Target C [1]; [3]): 1000 to 10000 nM
IC50 (Target C [2]): 1000 to 10000 nM

Cc1cn2nc(-c3cc(F)c4nn([C@@H]5CCNC[C@H]5F)cc4c3)cc(C)c2n1 [Compound 168, 6-(7-fluoro-2-((3R,4R)-3-fluoropiperidin-4-yl)-2H-indazol-5-yl)-2,8-dimethylimidazo [1,2-b]pyridazine]
IC50 (Target C [1]; [3]): 100 to 1000 nM
IC50 (Target C [2]): 100 to 1000 nM

COc1cc2nn(C3CCNCC3)cc2cc1-c1cc(C)c2nc(C)cn2n1 [Compound 159, 6-(6-methoxy-2-(piperidin-4-yl)-2H-indazol-5-yl)-2,8-dimethylimidazo[1,2-b]pyridazine]
IC50 (Target C [1]; [3]): > 10000 nM
IC50 (Target C [2]): > 10000 nM

Cn1cc2cc(-c3ccc4nn(C5CCNCC5)cc4n3)c(O)c(F)c2n1 [Compound 107, 7-fluoro-2-methyl-5-[2-(4-piperidyl)pyrazolo [4,3-b]pyridin-5-yl]indazol-6-ol]
IC50 (Target C [1]; [3]): 100 to 1000 nM
IC50 (Target C [2]): 100 to 1000 nM

Cc1ncc2cc(-c3cc(F)c4nn(C5CCNCC5)cc4c3)ccc2n1 [Compound 165, 6-[7-fluoro-2-(4-piperidyl)indazol-5-yl]-2-methyl-quinazoline]
IC50 (Target C [1]; [3]): > 10000 nM
IC50 (Target C [2]): > 10000 nM

Cc1cn2nc(-c3cc(F)c4nn(C5CCN(C6CCC6)CC5)cc4c3)cc(C)c2n1 [Compound 151, 6-[2-(1-cyclobutyl-4-piperidyl)-7-fluoro-indazol-5-yl]-2,8-dimethyl-imidazo [1,2-b] pyridazine]
IC50 (Target C [1]): < 100 nM
IC50 (Target C [2]): < 100 nM

CCN1CCC(n2cc3cc(-c4cc(F)c5nn(C)cc5c4)cc(F)c3n2)CC1 [Compound 104, 2-(1-ethyl-4-piperidyl)-7-fluoro-5-(7-fluoro-2-methyl-indazol-5-yl)indazole]
IC50 (Target C [1]; [3]): 1000 to 10000 nM
IC50 (Target C [2]): 100 to 1000 nM

Cc1cn2nc(-n3cc4cc(C5CCNCC5)cc(F)c4n3)cc(C)c2n1 [Compound 120, 6-[7-fluoro-5-(4-piperidyl)indazol-2-yl]-2,8-dimethyl-imidazo[1,2-b]pyridazine]
IC50 (Target C [1]; [3]): > 10000 nM
IC50 (Target C [2]): > 10000 nM

Cc1nc2c(F)cc(-c3cc(F)c4nn(C5CCNCC5)cc4c3)cc2o1 [Compound 136, 4-fluoro-6-[7-fluoro-2-(4-piperidyl)indazol-5-yl]-2-methyl-1,3-benzoxazole]
IC50 (Target C [1]; [3]): 100 to 1000 nM
IC50 (Target C [2]): < 100 nM

Cc1cn2nc(-c3cc(F)c4nn(C5CCNCC5)cc4c3)cc2c(C)n1 [Compound 124, 2-[7-fluoro-2-(4-piperidyl)indazol-5-yl]-4,6-dimethyl-pyrazolo[1,5-a]pyrazine]
IC50 (Target C [1]; [3]): 100 to 1000 nM
IC50 (Target C [2]): < 100 nM

Cc1cn2nc(-c3cc(F)c4nn([C@@H]5CCNC6(CC6)C5)cc4c3)cc(C)c2n1 [Compound 173]
IC50 (Target C [1]; [3]): 100 to 1000 nM
IC50 (Target C [2]): < 100 nM

Cc1cn2nc(-c3cc4cn(C5CCNCC5)nc4c(O)n3)cc(C)c2n1 [Compound 139, 5-(2,8-dimethylimidazo[1,2-b]pyridazin-6-yl)-2-(4-piperidyl)-6H-pyrazolo[3,4-c]pyridin-7-one]
IC50 (Target C [1]; [3]): 100 to 1000 nM
IC50 (Target C [2]): 100 to 1000 nM

CCN1CCC(n2cc3cc(-c4cc(C)c5nc(C)cn5n4)cc(F)c3n2)CC12CC2 (centres unmarked) [Compound 177, 6-[2-(4-ethyl-4-azaspiro[2.5]octan-7-yl)-7-fluoro-indazol-5-yl]-2,8-dimethyl-imidazo[1,2-b]pyridazine]
IC50 (Target C [1]; [3]): < 100 nM
IC50 (Target C [2]): < 100 nM

Cc1cn2nc(-c3cc(F)c4nn(C5CCN(C6CCC6)C6(CC6)C5)cc4c3)cc(C)c2n1 (centres unmarked) [Compound 186, 6-[2-(4-cyclobutyl-4-azaspiro[2.5]octan-7-yl)-7-fluoro-indazol-5-yl]-2,8-dimethyl-imidazo[1,2-b]pyridazine]
IC50 (Target C [1]): < 100 nM
IC50 (Target C [2]): < 100 nM

Cn1cc2cc(-c3cc(Cl)c4nn(C5CCNCC5)cc4n3)c(O)cc2n1 [Compound 141]
IC50 (Target C [1]; [3]): > 10000 nM
IC50 (Target C [2]): > 10000 nM

Source: patent US20250082633A1, “COMPOUNDS AND METHODS FOR MODULATING SPLICING” (REMIX THERAPEUTICS INC., priority 2021, published 2025)
